In patent US6737383B1, “Herbicidal oxadiazolidines” (priority 1999, dated 2004):

What was measured:
soybean = assay: Test B pre/postemergence soybean; assay type: in vivo, Glycine max
Summary of the method: (§1)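 Response is a visual 0-to-10 score relative to untreated plants, where 0 means no effect and 10 means complete control, taken twelve to sixteen days after application. Treatments went onto soil at planting and onto foliage of 1- to 4-leaf plants, using a surfactant-containing non-phytotoxic solvent.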

bedstraw = assay: Test B pre/postemergence bedstraw; assay type: in vivo, Galium aparine
Summary of the method: as §1

cocklebur = assay: Test B pre/postemergence cocklebur; assay type: in vivo, Xanthium strumarium
Summary of the method: as §1

bamyardgrass = assay: Test B flood test barnyardgrass; assay type: in vivo, Echinochloa crus-galli
Summary of the method: (§2)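 Each value is a visual injury score relative to controls, with 10 meaning complete control and 0 no effect. Evaluation took place twelve to sixteen days after the 2-leaf-stage plants were treated and kept in the greenhouse.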

rice = assay: Test B flood test rice; assay type: in vivo, Oryza sativa
Summary of the method: as §2

pigweed = assay: Test B pre/postemergence pigweed; assay type: in vivo, Amaranthus retroflexus
Summary of the method: as §1

velvetleaf = assay: Test B pre/postemergence velvetleaf; assay type: in vivo, Abutilon theophrasti
Summary of the method: as §1

giant foxtail = assay: Test B pre/postemergence giant foxtail; assay type: in vivo, Setaria faberii
Summary of the method: as §1

wild oat = assay: Test B pre/postemergence wild oat; assay type: in vivo, Avena fatua
Summary of the method: as §1

blackgrass = assay: Test B pre/postemergence blackgrass; assay type: in vivo, Alopecurus myosuroides
Summary of the method: as §1

purple nutsedge = assay: Test B pre/postemergence purple nutsedge; assay type: in vivo, Cyperus rotundus
Summary of the method: as §1

morningglory = assay: Test B pre/postemergence morningglory; assay type: in vivo, Ipomoea hederacea
Summary of the method: as §1

surinam grass = assay: Test B pre/postemergence surinam grass; assay type: in vivo, Brachiaria decumbens
Summary of the method: as §1

smallflower flatsedge = assay: Test B flood test smallflower flatsedge; assay type: in vivo, Cyperus difformis
Summary of the method: as §2

wheat = assay: Test B pre/postemergence wheat; assay type: in vivo, Triticum aestivum
Summary of the method: as §1

crabgrass = assay: Test B pre/postemergence crabgrass; assay type: in vivo, Digitaria sanguinalis
Summary of the method: as §1

[1] = Postemergence, Rate 62 g/ha, scale 0 to 10, 0 is no effect, 10 is complete control
[2] = Postemergence, Rate 250 g/ha, scale 0 to 10, 0 no effect, 10 complete control
[3] = Preemergence, Rate 62 g/ha, scale 0 to 10 (0 no effect, 10 complete control)
[4] = Preemergence, Rate 125 g/ha, scale 0 to 10 (0 no effect, 10 complete control)
[5] = Preemergence, Rate 250 g/ha, scale of 0 to 10 where 0 is no effect and 10 is complete control
[6] = Preemergence, Rate 500 g/ha, scale 0 (no effect) to 10 (complete control)
[7] = Rate 125 g/ha, Postemergence, scale 0 to 10, 0 no effect, 10 complete control
[8] = Rate 500 g/ha, Postemergence, scale 0 to 10, 0 no effect, 10 complete control
[9] = Rate 62 g/ha, headed Pre-emergence (flood test species), scale 0 to 10 (0 no effect, 10 complete control)
[10] = Rate 125 g/ha, Pre-emergence, flood test species, scale 0 to 10 where 0 is no effect and 10 is complete control
[11] = Rate 250 g/ha, headed Pre-emergence (flood test species), scale 0 to 10 (0 no effect, 10 complete control)
[12] = Rate 500 g/ha, headed Pre-emergence (flood test species), scale 0 to 10 (0 no effect, 10 complete control)

Cc1ccccc1-n1c(=O)on(C(=O)N(Cc2ccccc2)C(C)C)c1=O [Compound 72]
0: Soybean plant response rating (soybean; [1]) | Soybean plant response rating (soybean; [2]) | Soybean plant response rating (soybean; [3]) | Plant response rating, Soybean (soybean; [4]) | Plant response rating, Soybean (soybean; [5]) | Soybean plant response rating (soybean; [6]) | Soybean plant response rating (soybean; [7]) | Soybean plant response rating (soybean; [8]) | Bedstraw plant response rating (bedstraw; [1]) | Bedstraw plant response rating (bedstraw; [2]) | Bedstraw plant response rating (bedstraw; [3]) | Plant response rating, Bedstraw (bedstraw; [4]) | Plant response rating, Bedstraw (bedstraw; [5]) | Bedstraw plant response rating (bedstraw; [6]) | Bedstraw plant response rating (bedstraw; [7]) | Bedstraw plant response rating (bedstraw; [8]) | Cocklebur plant response rating (cocklebur; [1]) | Cocklebur plant response rating (cocklebur; [2]) | Cocklebur plant response rating (cocklebur; [3]) | Plant response rating, Cocklebur (cocklebur; [4]) | Plant response rating, Cocklebur (cocklebur; [5]) | Cocklebur plant response rating (cocklebur; [6]) | Cocklebur plant response rating (cocklebur; [7]) | Cocklebur plant response rating (cocklebur; [8]) | Barnyardgrass plant response rating (bamyardgrass; [9]) | Barnyardgrass plant response rating (bamyardgrass; [10]) | Barnyardgrass plant response rating (bamyardgrass; [11]) | Plant response rating, Barnyardgrass (bamyardgrass; [12]) | Rice plant response rating (rice; [9]) | Rice plant response rating (rice; [10]) | Rice plant response rating (rice; [11]) | Plant response rating, Rice (rice; [12]) | Redroot pigweed plant response rating (pigweed; [1]) | Redroot pigweed plant response rating (pigweed; [2]) | Redroot pigweed plant response rating (pigweed; [3]) | Plant response rating, Redroot pigweed (pigweed; [4]) | Plant response rating, Redroot pigweed (pigweed; [5]) | Redroot pigweed plant response rating (pigweed; [6]) | Redroot pigweed plant response rating (pigweed; [7]) | Redroot pigweed plant response rating (pigweed; [8]) | Velvetleaf plant response rating (velvetleaf; [1]) | Velvetleaf plant response rating (velvetleaf; [2]) | Velvetleaf plant response rating (velvetleaf; [3]) | Plant response rating, Velvetleaf (velvetleaf; [4]) | Plant response rating, Velvetleaf (velvetleaf; [5]) | Velvetleaf plant response rating (velvetleaf; [6]) | Velvetleaf plant response rating (velvetleaf; [7]) | Velvetleaf plant response rating (velvetleaf; [8]) | Giant foxtail plant response rating (giant foxtail; [1]) | Giant foxtail plant response rating (giant foxtail; [2]) | Giant foxtail plant response rating (giant foxtail; [3]) | Plant response rating, Giant foxtail (giant foxtail; [4]) | Giant foxtail plant response rating (giant foxtail; [7]) | Giant foxtail plant response rating (giant foxtail; [8]) | Wild oats plant response rating (wild oat; [1]) | Wild oats plant response rating (wild oat; [2]) | Wild oats plant response rating (wild oat; [3]) | Plant response rating, Wild oats (wild oat; [4]) | Plant response rating, Wild oats (wild oat; [5]) | Wild oats plant response rating (wild oat; [6]) | Wild oats plant response rating (wild oat; [7]) | Wild oats plant response rating (wild oat; [8]) | Blackgrass plant response rating (blackgrass; [1]) | Blackgrass plant response rating (blackgrass; [2]) | Blackgrass plant response rating (blackgrass; [3]) | Plant response rating, Blackgrass (blackgrass; [4]) | Plant response rating, Blackgrass (blackgrass; [5]) | Blackgrass plant response rating (blackgrass; [6]) | Blackgrass plant response rating (blackgrass; [7]) | Blackgrass plant response rating (blackgrass; [8]) | Nutsedge plant response rating (purple nutsedge; [1]) | Nutsedge plant response rating (purple nutsedge; [2]) | Nutsedge plant response rating (purple nutsedge; [3]) | Plant response rating, Nutsedge (purple nutsedge; [4]) | Plant response rating, Nutsedge (purple nutsedge; [5]) | Nutsedge plant response rating (purple nutsedge; [6]) | Nutsedge plant response rating (purple nutsedge; [7]) | Nutsedge plant response rating (purple nutsedge; [8]) | Morningglory plant response rating (morningglory; [1]) | Morningglory plant response rating (morningglory; [2]) | Morningglory plant response rating (morningglory; [3]) | Plant response rating, Morningglory (morningglory; [4]) | Plant response rating, Morningglory (morningglory; [5]) | Morningglory plant response rating (morningglory; [6]) | Morningglory plant response rating (morningglory; [7]) | Morningglory plant response rating (morningglory; [8]) | B. signalgrass plant response rating (surinam grass; [1]) | B. signalgrass plant response rating (surinam grass; [2]) | B. signalgrass plant response rating (surinam grass; [3]) | Plant response rating, B. signalgrass (surinam grass; [4]) | Plant response rating, B. signalgrass (surinam grass; [5]) | B. signalgrass plant response rating (surinam grass; [6]) | B. signalgrass plant response rating (surinam grass; [7]) | B. signalgrass plant response rating (surinam grass; Rate 500 g/ha, Postemergence, scale of 0 to 10 where 0 is no effect and 10 is complete control) | S. Flatsedge plant response rating (smallflower flatsedge; [9]) | S. Flatsedge plant response rating (smallflower flatsedge; [10]) | S. Flatsedge plant response rating (smallflower flatsedge; [11]) | Plant response rating, S. Flatsedge (smallflower flatsedge; [12]) | Wheat plant response rating (wheat; [1]) | Wheat plant response rating (wheat; [2]) | Wheat plant response rating (wheat; [3]) | Plant response rating, Wheat (wheat; [4]) | Plant response rating, Wheat (wheat; [5]) | Wheat plant response rating (wheat; [6]) | Wheat plant response rating (wheat; [7]) | Wheat plant response rating (wheat; [8]) | Crabgrass plant response rating (crabgrass; [1]) | Crabgrass plant response rating (crabgrass; [2]) | Crabgrass plant response rating (crabgrass; [3]) | Plant response rating, Crabgrass (crabgrass; [4]) | Plant response rating, Crabgrass (crabgrass; [5]) | Crabgrass plant response rating (crabgrass; [7]) | Crabgrass plant response rating (crabgrass; [8])
2: Plant response rating, Giant foxtail (giant foxtail; [5]) | Giant foxtail plant response rating (giant foxtail; [6])
4: Crabgrass plant response rating (crabgrass; [6])
